Entries after “also recorded” stand apart in the source; their conditions may differ.
Legend:
[1] = Safety (body weight) in Capan-1 CDX model (3.1); assay type: in vivo; design: Body weight: unit: g; conditions: for Body weight / Body weight change percentage: olaparib 100 mg/kg p.o. QD×30, TH-302 75 mg/kg i.v. QW×3
Description: Each nude female BALB/c mouse was subcutaneously inoculated at a lower portion of the right back with 5×10^5 Capan-1 cells resuspended in a 1:1 mixture of PBS and matrigel (0.1 ml per mouse). A total of 64 female mice were inoculated. The inoculation was conducted on Jun. […] The test drug olaparib group was orally and intragastrically administered, once daily for a total of 30 days. Efficacy was evaluated based on relative tumor growth inhibition (TGI) rates (%), and safety was evaluated based on body weight changes and deaths of the animals.

[2] = Safety (body weight) in BL3325 PDX model; assay type: in vivo, mouse; conditions: Group 2: 50 mg/kg p.o. QD×30
Description: Protocol: Nude female Balb/c mice were subcutaneously inoculated with HuPrime® bladder cancer BL3325 tumor tissue, establishing a human bladder cancer subcutaneous xenograft tumor model. The mice were divided into 6 groups, 6 in each group: 50 mg/kg of the test drug olaparib as a monotherapy (Group 02); 80 mg/kg TH-302 as a monotherapy (Group 03); 40 mg/kg TH-302 as a monotherapy (Group 04); 20 mg/kg TH-302 as a monotherapy (Group 05); 40 mg/kg TH-302 in combination therapy with 50 mg/kg olaparib (Group 06); and a glucose injection solution as a vehicle control (Group 01). The vehicle control group and the TH-302 treatment groups were all administered through tail vein, once weekly for a total of 3 weeks. Olaparib was intragastrically administered once daily for totally 30 days. Routes of administration, doses and regimens for the HuPrime® bladder cancer BL3325 animal model are specifically summarized in Table 20.
Tumor growth of the treatment and control groups on different days in the experiment were recorded and shown in Table 21, and corresponding tumor volume growth curves of the mice in respective groups are shown in FIG. 11. Efficacy evaluation was carried out based on relative tumor proliferation rates and relative tumor growth inhibition rates, and the results of efficacy analysis are summarized in Table 22. Body weight changes of the treatment and control groups after administration were recorded to investigate safety of the groups in the HuPrime® bladder cancer BL3325 subcutaneous model. Body weight change rates of the mice on Day 35 are shown in Table 23, and curves showing body weights of the treatment groups over time are plotted in FIG. 12.

[3] = Safety (body weight) in Capan-1 CDX model (3.2); assay type: in vivo; conditions: Group 2: 100 mg/kg p.o. QD×30
Description: Protocol: Nude BALB/c mice were subcutaneously inoculated with human pancreatic cancer Capan-1 cells, establishing a human pancreatic cancer subcutaneous xenograft model. The mice were divided into 7 groups, 6 in each group: 100 mg/kg of the test drug olaparib as a monotherapy (Group 2); 50 mg/kg of TH-302 as a monotherapy (Group 3, QD); 100 mg/kg of TH-302 as a monotherapy (Group 4); 50 mg/kg of TH-302 as a monotherapy (Group 5, QW); 25 mg/kg of TH-302 as a monotherapy (Group 6); 25 mg/kg TH-302 in combination therapy with 100 mg/kg olaparib (Group 7); and 10% anhydrous ethanol+10% polyoxyethylene (35) castor oil+80% glucose injection solution D5W (pH 7.4) as a vehicle control (Group 1). The vehicle control group and the TH-302 test groups were all administered through tail vein injection. The 50 mg/kg TH-302 monotherapy group (Group 3, QD) was administered once daily for 3 consecutive days. After rest for 4 days and two weeks, the mice were again administered daily for another 3 consecutive days. TH-302 in all the 100 mg/kg (Group 4, QW), 50 mg/kg (Group 5, QW) and 25 mg/kg (Group 6, QW) TH-302 monotherapy groups and 25 mg/kg TH-302+100 mg/kg olaparib combination therapy group (Group 7) was administered once weekly for a total of three weeks. The test drug olaparib in all the groups was orally and intragastrically administered once daily for totally 30 days. Routes of administration, doses and regimens for the human pancreatic cancer Capan-1 animal model are specifically summarized in Table 12.
Tumor growth of the treatment and control groups on different days in the experiment were recorded and shown in Table 13, and corresponding tumor volume growth curves of the mice in respective groups are shown in FIG. 7. Efficacy evaluation was conducted based on relative tumor proliferation rates and relative tumor growth inhibition rates, and the results of efficacy analysis are summarized in Table 14. Body weight changes of the treatment and control groups after administration were recorded to investigate safety of the groups in the human pancreatic cancer Capan-1 subcutaneous model. Body weight change rates of the mice on Day 43 are shown in Table 15, and curves showing body weights of the treatment groups over time are plotted in FIG. 8.

What does the source list for O=C(c1cc(Cc2n[nH]c(=O)c3ccccc23)ccc1F)N1CCN(C(=O)C2CC2)CC1 [olaparib]?
Body weight ([1]; Day 5): 22.8; Body weight change percentage ([1]; Day 5): 0.00%; Body weight ([1]; Day 6): 22.5; Body weight change percentage ([1]; Day 6): −1.18%; Body weight ([1]; Day 7): 22.6; Body weight change percentage ([1]; Day 7): −0.91%; Body weight ([1]; Day 8): 22.7; Body weight change percentage ([1]; Day 8): −0.35%; Body weight ([1]; Day 9): 22.6; Body weight change percentage ([1]; Day 9): −0.82%; Body weight ([1]; Day 10): 23.0; Body weight change percentage ([1]; Day 10): 1.04%; Body weight ([1]; Day 11): 22.7; Body weight change percentage ([1]; Day 11): −0.25%; Body weight ([1]; Day 12): 22.7; Body weight change percentage ([1]; Day 12): −0.61%; Body weight ([1]; Day 13): 23.3; Body weight change percentage ([1]; Day 13): 2.18%; Body weight ([1]; Day 14): 23.2; Body weight change percentage ([1]; Day 14): 1.87%; Body weight ([1]; Day 15): 23.2; Body weight change percentage ([1]; Day 15): 1.86%; Body weight ([1]; Day 16): 23.3; Body weight change percentage ([1]; Day 16): 2.16%; Body weight ([1]; Day 17): 23.; Body weight change percentage ([1]; Day 17): 1.43%; Body weight ([1]; Day 18): 23.6; Body weight change percentage ([1]; Day 18): 3.45%; Body weight ([1]; Day 19): 23.5; Body weight change percentage ([1]; Day 19): 3.00%; Body weight ([1]; Day 20): 23.3; Body weight change percentage ([1]; Day 20): 2.19%; Body weight ([1]; Day 21): 23.4; Body weight change percentage ([1]; Day 21): 2.68%; Body weight ([1]; Day 22): 23.6; Body weight change percentage ([1]; Day 22): 3.51%; Body weight ([1]; Day 23): 23.8; Body weight change percentage ([1]; Day 23): 4.38%; Body weight ([1]; Day 24): 23.8; Body weight change percentage ([1]; Day 24): 4.47%; Body weight ([1]; Day 25): 23.7; Body weight change percentage ([1]; Day 25): 3.80%; Body weight ([1]; Day 26): 23.9; Body weight change percentage ([1]; Day 26): 4.97%; Body weight ([1]; Day 27): 24.0; Body weight change percentage ([1]; Day 27): 5.39%; Body weight ([1]; Day 28): 24.0; Body weight change percentage ([1]; Day 28): 5.29%; Body weight ([1]; Day 29): 23.7; Body weight change percentage ([1]; Day 29): 4.05%; Body weight ([1]; Day 30): 23.9; Body weight change percentage ([1]; Day 30): 4.85%; Body weight ([1]; Day 31): 24.5; Body weight change percentage ([1]; Day 31): 7.24%; Body weight ([1]; Day 32): 24.3; Body weight change percentage ([1]; Day 32): 6.56%; Body weight ([1]; Day 33): 24.4; Body weight change percentage ([1]; Day 33): 6.92%; Body weight ([1]; Day 34): 24.3; Body weight change percentage ([1]; Day 34): 6.71%; Body weight ([1]; Day 35): 24.5; Body weight change percentage ([1]; Day 35): 7.26%; Body weight loss / tolerance ([1]; olaparib 100 mg/kg, TH-302 75 mg/kg, combination 100 + 75 mg/kg): No significant body weight losses; also recorded: good tolerance; Average Body Weight g (x ± S) ([2]; Day 0): 21.8 ± 0.5 g; Average Body Weight g (x ± S) ([2]; Day 35): 20.9 ± 0.7 g; Body Weight Change Rate (%) ([2]; Day 35): −4.24% ± 2.93%; Average Body Weight g (x ± S) ([3]; Day 6): 21.9 ± 0.4 g; Average Body Weight g (x ± S) ([3]; Day 43): 24.2 ± 0.4 g; Body Weight Change Rate (%) ([3]; Day 43): 10.95% ± 2.07%
